The record followed here is the supplement of paper PMC13380429.

Holding throughout (details): 72 h
Assay [1] has as its system U2OS. As to the kind of experiment: drug sensitivity score (DSS) for viability; higher = more toxic; extreme values may be limits of the assay.
The subject of assay [2] is Calu-3. Described as above.
The subject of assay [3] is Caco-2. The assay is described as above.
The test system of assay [4] is HepG2. The description is as above.
The subject of assay [5] is U2OS. The assay is described as follows: relative viability EC50 (midpoint between 100% and the lowest measured viability); higher = less toxic.
The subject of assay [6] is Calu-3. The assay is described as above.
Assay [7] relates to Caco-2. Described as above.
The subject of assay [8] is HepG2. The assay is described as above.
Assay [9] deals with U2OS. The assay is described as follows: cell viability relative to DMSO; higher = less toxic.
In assay [10] the test system is Calu-3. The description is as above.
In assay [11] the test system is Caco-2. Described as above.
Assay [12] concerns HepG2. Described as above.
Assay [13] deals with Vero E6. The assay is described as follows: drug sensitivity score (DSS) for viability; higher = more toxic; extreme values may be limits of the assay.

With `COC(=O)N[C@H](C(=O)N1CCC[C@H]1c1ncc(-c2ccc(-c3ccc(-c4cnc([C@@H]5CCCN5C(=O)[C@@H](NC(=O)OC)C(C)C)[nH]4)cc3)cc2)[nH]1)C(C)C` [daclatasvir], the drug sensitivity score is 0 in assay [1], 0 in assay [2], 0.5 in assay [3] and 0 in [4]. In addition, the “relative viability EC50” value in [5], in [6], in assay [7] and in [8] was greater than 10 µM in each case. Moreover, the cell viability (in general, a read-out of living cells in per cent, often relative to untreated cells) in [9] (1 nM) is 104%; in [9] (10 nM), 101%; in assay [9] (100 nM) it was 101%; in assay [9] (1000 nM) it was 102%; in assay [9] (10000 nM), 90.3%; in assay [10] (1 nM) it was 107%. For the same molecule, the cell viability came to 90.6% in assay [10] (10 nM); 93.1% in assay [10] (100 nM); 96.1% in assay [10] (1000 nM); 99.7% in assay [10] (10000 nM); 104% in [11] (1 nM); 96.1% in assay [11] (10 nM). The cell viability in [11] (100 nM) came to 107%; in assay [11] (1000 nM), 98.7%; in assay [11] (10000 nM) it was 83.1%; in [12] (1 nM) it was 120%; in assay [12] (10 nM), 116%; in assay [12] (100 nM), 112%. The cell viability in assay [12] (1000 nM) came out at 106%; in [12] (10000 nM) it was 92%.
In the case of `CN1C[C@@H]2C[C@H]1CN2c1cc2c(cc1F)c(=O)c(C(=O)O)cn2C1CC1` [danofloxacin], the drug sensitivity score in [1], in assay [13], in assay [2] and in assay [4] was 0 each time.
Consider `CCCCCCCCCC(=O)OC1(c2ccc(Cl)cc2)CCN(CCCC(=O)c2ccc(F)cc2)CC1` [haloperidol-decanoate], for which the drug sensitivity score in [1], in assay [2], in assay [3] and in [4] was 0 each time. The “relative viability EC50” value in [5], in assay [6], in assay [7] and in assay [8] was greater than 10 µM each time. Besides, the cell viability in [9] (1 nM) worked out at 107%; in [9] (10 nM) it was 101%; in [9] (100 nM), 104%; in assay [9] (1000 nM) it was 101%; in assay [9] (10000 nM) it was 99.2%; in [10] (1 nM), 103%. Further, the cell viability in assay [10] (10 nM) turned out to be 105%; in [10] (100 nM) it was 112%; in assay [10] (1000 nM), 99.8%; in assay [10] (10000 nM), 114%; in [11] (1 nM) it was 104%; in assay [11] (10 nM), 104%. In addition, the cell viability in [11] (100 nM) came to 104%; in [11] (1000 nM), 93.5%; in [11] (10000 nM) it was 105%; in assay [12] (1 nM) it was 112%; in [12] (10 nM), 108%; in assay [12] (100 nM), 106%. The cell viability in assay [12] (1000 nM) amounted to 112%; in [12] (10000 nM) it was 97.1%.
Turning to `O=P1(NCCCl)OCCCN1CCCl` (centres undefined) [ifosfamide], the drug sensitivity score in assay [2], in assay [3] and in assay [4] was 0 in each case. Besides, the “relative viability EC50” value in assay [6], in assay [7] and in assay [8] was greater than 10 µM each time. Also, the cell viability in [10] (1 nM) came to 95.2%; in assay [10] (10 nM), 104%; in [10] (100 nM) it was 97.7%; in [10] (1000 nM), 95.5%; in assay [10] (10000 nM), 88.7%; in assay [11] (1 nM), 104%. The cell viability in [11] (10 nM) turned out to be 107%; in assay [11] (100 nM) it was 94.1%; in assay [11] (1000 nM), 95.4%; in assay [11] (10000 nM), 101%; in [12] (1 nM) it was 107%; in [12] (10 nM) it was 98.1%. For the same molecule, the cell viability in assay [12] (100 nM) was determined as 95.9%; in assay [12] (1000 nM), 102%; in assay [12] (10000 nM), 109%.
On to `CC(=O)N(CC(O)CN(C(C)=O)c1c(I)c(C(=O)NCC(O)CO)c(I)c(C(=O)NCC(O)CO)c1I)c1c(I)c(C(=O)NCC(O)CO)c(I)c(C(=O)NCC(O)CO)c1I` (centres undefined) [iodixanol], for which the drug sensitivity score in [1], in assay [2], in assay [3] and in assay [4] was 0 throughout. Moreover, the “relative viability EC50” value in assay [5], in [6], in [7] and in assay [8] was greater than 10 µM each time. In addition, the cell viability amounted to 95.4% in assay [9] (1 nM); 101% in assay [9] (10 nM); 95.6% in assay [9] (100 nM); 108% in [9] (1000 nM); 97.5% in assay [9] (10000 nM); 88.1% in assay [10] (1 nM). The cell viability was found to be 107% in [10] (10 nM); 95.9% in assay [10] (100 nM); 97.2% in assay [10] (1000 nM); 96.3% in assay [10] (10000 nM); 96.9% in assay [11] (1 nM); 102% in [11] (10 nM). The cell viability in assay [11] (100 nM) came out at 87%; in assay [11] (1000 nM), 102%; in assay [11] (10000 nM), 102%; in [12] (1 nM) it was 107%; in assay [12] (10 nM), 99.2%; in [12] (100 nM), 108%. Moreover, the figures for the cell viability in [12] (1000 nM) and in assay [12] (10000 nM) were 102% and 105%, respectively.
